Broadly, the inhibition is the percentage by which the read-out fell short of the control. The low end stands for little suppression, the high end for strong suppression.

Series [1] in a line: HCV replicon assay (luciferase reporter, ET cell line). It is filed as cell-based. To be noted: Hepatitis C virus, HCV replicon luciferase activity in ET cells. The method, boiled down: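 ET cells carry a stable luciferase-ubiquitin-neo/NS3-5B subgenomic HCV replicon with adaptive mutations. Compounds (0.1 nM to […], 0.5% DMSO) were added 24 h after plating, and luciferase was read 48-72 h later. EC50 came from 10-point 2-fold dilutions fitted to a Hill equation; TC50 was measured in parallel by WST-1.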
On the technique in general: A replicon is a self-replicating genome or part of one, used to study replication in cells.

For series [2] the following is noted: patients treated at currently recommended doses; cited from earlier work.

For the compound `O=C(c1nc2c(C(F)(F)F)cc(-c3ccoc3)cn2c1Cl)N1CC=C(c2cccs2)CC1` [Compound 613, (3-Chloro-6-furan-3-yl-8-trifluoromethyl-imidazo[1,2-a]pyridin-2-yl)-(4-thiophen-2-yl-3,6-dihydro-2H-pyridin-1-yl)-methanone], the inhibition at 10 µM in series [1] was found to be 99.4%.
Regarding `N#Cc1c(F)cccc1C1=CCN(C(=O)c2nc3c(C(F)(F)F)cc(-c4ccoc4)cn3c2Cl)CC1` [Compound 614, 2-[1-(3-Chloro-6-furan-3-yl-8-trifluoromethyl-imidazo[1,2-a]pyridine-2-carbonyl)-1,2,3,6-tetrahydro-pyridin-4-yl]-6-fluoro-benzonitrile], the inhibition at 10 µM in series [1] came to 89.7%.
`COc1ccc(F)c(C2=CCN(C(=O)c3nc4c(C(F)(F)F)cc(-c5ccoc5)cn4c3Cl)CC2)c1F` [Compound 616, (3-Chloro-6-furan-3-yl-8-trifluoromethyl-imidazo[1,2-a]pyridin-2-yl)-[4-(2,6-difluoro-3-methoxy-phenyl)-3,6-dihydro-2H-pyridin-1-yl]-methanone] returned an inhibition at 10 µM in series [1] of 64.9%.
The compound `O=C(c1nc2c(C(F)(F)F)cc(-c3ccoc3)cn2c1Cl)N1CC=C(c2ccc(F)nc2F)CC1` [Compound 617, (3-Chloro-6-furan-3-yl-8-trifluoromethyl-imidazo[1,2-a]pyridin-2-yl)-(2,6-difluoro-3′,6′-dihydro-2′H-[3,4′]bipyridinyl-1′-yl)-methanone] gave an inhibition at 10 µM in series [1] of 95%.
Still for that read-out and setting: under `O=C(c1nc2c(C(F)(F)F)cc(-c3ccoc3)cn2c1Cl)N1CC=C(c2cncnc2)CC1` [Compound 618, [3-chloro-6-(furan-3-yl)-8-(trifluoromethyl)imidazo[1,2-a]pyridin-2-yl][4-(pyrimidin-5-yl)-3,6-dihydropyridin-1(2H)-yl]methanone] stands 95.9%.
With `O=C(c1nc2c(C(F)(F)F)cc(-c3ccoc3)cn2c1Cl)N1CC=C(C2=CN=CNC2)CC1` [Compound 619, [3-chloro-6-(furan-3-yl)-8-(trifluoromethyl)imidazo[1,2-a]pyridin-2-yl][4-(1,6-dihydropyrimidin-5-yl)-3,6-dihydropyridin-1(2H)-yl]methanone], in series [1], at 10 µM the inhibition was 44%.
Same read-out and setting: under `Cn1cc(-c2cc(C(F)(F)F)c3nc(C(=O)N4CCC(c5cccc(F)c5)C4)c(Cl)n3c2)cn1` (stereo not drawn) [Compound 624, [3-Chloro-6-(1-methyl-1H-pyrazol-4-yl)-8-trifluoromethyl-imidazo[1,2-a]pyridin-2-yl]-[3-(3-fluoro-phenyl)-pyrrolidin-1-yl]-methanone] stands 63.9%; under `Cc1n[nH]cc1-c1cc(C(F)(F)F)c2nc(C(=O)N3CCC(c4cccc(F)c4)C3)c(Cl)n2c1` (stereo not drawn) [Compound 625, [3-Chloro-6-(3-methyl-1H-pyrazol-4-yl)-8-trifluoromethyl-imidazo[1,2-a]pyridin-2-yl]-[3-(3-fluoro-phenyl)-pyrrolidin-1-yl]-methanone], 59.8%.
`O=C(c1nc2c(C(F)(F)F)cc(C3=CCNCC3)cn2c1Cl)N1CCC(c2cccc(F)c2)C1` (stereo not drawn) [Compound 629, [3-chloro-6-(1,2,3,6-tetrahydropyridin-4-yl)-8-(trifluoromethyl)imidazo[1,2-a]pyridin-2-yl][3-(3-fluorophenyl)pyrrolidin-1-yl]methanone] showed an inhibition at 10 µM in series [1] of 73.3%.
On the same count and under the same terms, the figure for `O=C(c1nc2c(C(F)(F)F)cc(-c3coc(Cl)c3)cn2c1Cl)N1CCC(c2cccc(F)c2)C1` (stereo not drawn) [Compound 633, [3-Chloro-6-(5-chloro-furan-3-yl)-8-trifluoromethyl-imidazo[1,2-a]pyridin-2-yl]-[3-(3-fluoro-phenyl)-pyrrolidin-1-yl]-methanone] is 90.2%; for `O=C(c1nc2c(C(F)(F)F)cc(-c3ccoc3)cn2c1Cl)N1C2C=C(c3cscn3)CC1CC2` (stereo not drawn) [Compound 634, [3-chloro-6-(furan-3-yl)-8-(trifluoromethyl)imidazo[1,2-a]pyridin-2-yl][3-(1,3-thiazol-4-yl)-8-azabicyclo[3.2.1]oct-2-en-8-yl]methanone] it is 86.4%; for `N#Cc1c(F)ccc(F)c1C1=CCN(C(=O)c2nc3c(C(F)(F)F)cc(-c4ccoc4)cn3c2Cl)CC1` [Compound 635, 2-(1-{[3-chloro-6-(furan-3-yl)-8-(trifluoromethyl)imidazo[1,2-a]pyridin-2-yl]carbonyl}-1,2,3,6-tetrahydropyridin-4-yl)-3,6-difluorobenzonitrile] it is 95.9%.
On the same count and under the same terms, under `CC(=O)NCc1c(-c2ccoc2)cc(C(F)(F)F)c2nc(C(=O)N3CCC(c4cccc(F)c4)C3)cn12` (stereo not drawn) [Compound 637, N-{[2-{[3-(3-fluorophenyl)pyrrolidin-1-yl]carbonyl}-6-(furan-3-yl)-8-(trifluoromethyl)imidazo[1,2-a]pyridin-5-yl]methyl}acetamide] stands 60.8%; under `O=C(c1cn2cc(-c3ccoc3)cc(C(F)(F)F)c2n1)N1CCC(c2cccc(F)c2)C1` (stereo not drawn) [Compound 638, [3-(3-Fluoro-phenyl)-pyrrolidin-1-yl]-(6-furan-3-yl-8-trifluoromethyl-imidazo[1,2-a]pyridin-2-yl)-methanone], 98.5%.
Same read-out and setting: under `O=C(c1cn2cc(-c3ccccc3)cc(C(F)(F)F)c2n1)N1CCC(c2cccc(F)c2)C1` (stereo not drawn) [Compound 639, [3-(3-Fluoro-phenyl)-pyrrolidin-1-yl]-(6-phenyl-8-trifluoromethyl-imidazo[1,2-a]pyridin-2-yl)-methanone] stands 71.9%; under `O=C(c1nc2c(C(F)(F)F)cc(-c3ccccc3)cn2c1Br)N1CCC(c2cccc(F)c2)C1` (stereo not drawn) [Compound 640, (3-Bromo-6-phenyl-8-trifluoromethyl-imidazo[1,2-a]pyridin-2-yl)-[3-(3-fluoro-phenyl)-pyrrolidin-1-yl]-methanone], 88.1%.
As for `O=C(c1nc2c(C(F)(F)F)cc(-c3ccccc3)cn2c1Cl)N1CCC(c2cccc(F)c2)C1` (stereo not drawn) [Compound 641, (3-Chloro-6-phenyl-8-trifluoromethyl-imidazo[1,2-a]pyridin-2-yl)-[3-(3-fluoro-phenyl)-pyrrolidin-1-yl]-methanone], in series [1], testing at 10 µM gave an inhibition of 80.9%.
Same read-out and setting: under `CC(=O)c1cc(C(F)(F)F)c2nc(C(=O)N3CCC(c4cccc(F)c4)C3)c(Cl)n2c1` (stereo not drawn) [Compound 642, 1-{3-Chloro-2-[3-(3-fluoro-phenyl)-pyrrolidine-1-carbonyl]-8-trifluoromethyl-imidazo[1,2-a]pyridin-6-yl}-ethanone] stands 73.8%; under `Nc1nc(-c2cc(C(F)(F)F)c3nc(C(=O)N4CCC(c5cccc(F)c5)C4)c(Cl)n3c2)cs1` (stereo not drawn) [Compound 643, 2[6-(2-Amino-thiazol-4-yl)-3-chloro-8-trifluoromethyl-imidazo[1,2-a]pyridin-2-yl]-[3-(3-fluoro-phenyl)-pyrrolidin-1-yl]-methanone], 74.5%.
Same read-out and setting: under `CC(=O)Nc1nc(-c2cc(C(F)(F)F)c3nc(C(=O)N4CCC(c5cccc(F)c5)C4)c(Cl)n3c2)cs1` (stereo not drawn) [Compound 644, N-(4-{3-Chloro-2-[3-(3-fluoro-phenyl)-pyrrolidine-1-carbonyl]-8-trifluoromethyl-imidazo[1,2-a]pyridin-6-yl}-thiazol-2-yl)-acetamide] stands 59.6%; under `CC(C)c1cc(-c2ccccc2)cn2c(Br)c(C(=O)NCc3cccs3)nc12` [Compound 645, 3-Bromo-8-isopropyl-6-phenyl-imidazo[1,2-a]pyridine-2-carboxylic acid (thiophen-2-ylmethyl)-amide], 87.1%; under `CC(C)c1cc(-c2ccccc2)cn2cc(C(=O)N3CCC(c4cccc(F)c4)C3)nc12` (stereo not drawn) [Compound 646, [3-(3-Fluoro-phenyl)-pyrrolidin-1-yl]-(8-isopropyl-6-phenyl-imidazo[1,2-a]pyridin-2-yl)-methanone], 42.4%.
On the same count and under the same terms, under `CC(C)c1cc(-c2ccccc2)cn2c(Br)c(C(=O)N3CCC(c4cccc(F)c4)C3)nc12` (stereo not drawn) [Compound 647, (3-Bromo-8-isopropyl-6-phenyl-imidazo[1,2-a]pyridin-2-yl)-[3-(3-fluoro-phenyl)-pyrrolidin-1-yl]-methanone] stands 58.6%.
In the case of `CC(C)Cn1cc(-c2cc(C(F)(F)F)c3nc(C(=O)NCc4cccs4)c(Cl)n3c2)cn1` [Compound 649, 3-Chloro-6-(1-isobutyl-1H-pyrazol-4-yl)-8-trifluoromethyl-imidazo[1,2-a]pyridine-2-carboxylic Acid(thiophen-2-ylmethyl)-amide], 10 µM produced 62.7% inhibition in series [1].
`O=C(Cc1cn2cc(-c3ccoc3)cc(C(F)(F)F)c2n1)NCc1cccs1` [Compound 650, 2-[6-(furan-3-yl)-8-(trifluoromethyl)imidazo[1,2-a]pyridin-2-yl]-N-(thiophen-2-ylmethyl)acetamide] returned an inhibition at 10 µM in series [1] of 65.7%.
`O=C(Cc1cn2cc(-c3ccoc3)cc(C(F)(F)F)c2n1)N1CCC(c2cccc(F)c2)C1` (stereo not drawn) [Compound 652, 1-[3-(3-fluorophenyl)pyrrolidin-1-yl]-2-[6-(furan-3-yl)-8-(trifluoromethyl)imidazo[1,2-a]pyridin-2-yl]ethanone] returned an inhibition at 10 µM in series [1] of 82.1%.
Same read-out and setting: the figure for `FC(F)(F)c1cc(-c2ccoc2)cn2cc(-c3cc(-c4ccccc4)no3)nc12` [Compound 654, 6-Furan-3-yl-2-(3-phenyl-isoxazol-5-yl)-8-trifluoromethyl-imidazo[1,2-a]pyridine] is 20.4%; for `FC(F)(F)c1cc(-c2ccco2)cn2c(Cl)c(-c3nc(Cc4ccccc4)no3)nc12` [Compound 656, 2-(3-Benzyl-[1,2,4]oxadiazol-5-yl)-3-chloro-6-furan-2-yl-8-trifluoromethyl-imidazo[1,2-a]pyridine] it is 34.1%; for `O=C(c1nc2c(C(F)(F)F)cc(-c3cn[nH]c3)cn2c1I)N1CCC(c2cccc(F)c2)C1` (stereo not drawn) [Compound 659] it is 93.8%.
Turning to `NC(=O)c1ncn([C@@H]2O[C@H](CO)[C@@H](O)[C@H]2O)n1` [Ribavirin, ribavirin], the “patients with significant hemolysis” value in series [2] is on record as 10-20%.

These data come from US20120121540A1 (priority 2007, published 2012).
